For 1 compound, Ki results are on record in ChEMBL document CHEMBL1152896, “Design and in silico screening of combinatorial library of antimalarial analogs of triclosan inhibiting Plasmodium falciparum enoyl-acyl carrier protein reductase” (Eur J Med Chem, 2009).

This assay has as its target T1, Enoyl-acyl-carrier protein reductase (Plasmodium falciparum, UniProt Q965D5).
T1 sequence (Q965D5 whole entry): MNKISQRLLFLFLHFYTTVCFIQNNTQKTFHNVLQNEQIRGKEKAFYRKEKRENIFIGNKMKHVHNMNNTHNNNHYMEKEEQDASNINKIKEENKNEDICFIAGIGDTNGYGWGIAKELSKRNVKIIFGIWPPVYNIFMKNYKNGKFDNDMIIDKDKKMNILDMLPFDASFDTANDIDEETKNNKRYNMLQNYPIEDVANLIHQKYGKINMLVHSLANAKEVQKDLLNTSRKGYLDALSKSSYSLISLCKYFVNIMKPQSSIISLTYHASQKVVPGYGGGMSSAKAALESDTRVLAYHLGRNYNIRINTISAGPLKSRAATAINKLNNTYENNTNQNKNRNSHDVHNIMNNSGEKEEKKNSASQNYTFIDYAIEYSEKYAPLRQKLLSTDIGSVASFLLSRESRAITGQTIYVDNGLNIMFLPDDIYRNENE
Description: Inhibition of Plasmodium falciparum enoyl-acyl carrier protein reductase expressed in Escherichia coli BL21(DE3) by spectrophotometry.

Consider `Oc1cc(Cl)ccc1Oc1ccc(Cl)cc1Cl` [TRICLOSAN], for which the Ki was found to be 50 nM.

As a reminder, the Ki is a measure of affinity in units of concentration, obtained from inhibition or displacement.
